Consider ten compounds from ChEMBL document CHEMBL2203267, “Synthesis, antioxidant and antimicrobial activity of novel vanillin derived piperidin-4-one oxime esters: preponderant role of the phenyl ester substituents on the piperidin-4-one oxime core” (Bioorg Med Chem Lett, 2012).

Assay [1] in a line: Antifungal activity against Chrysosporium keratinophilum MTCC 2827 at 1000 ug/mL after 72 hrs by well plate method. Format: functional.
Assay [2] concerns Candida albicans. Put plainly: Antifungal activity against Candida albicans MTCC 3017 at 500 ug/mL after 72 hrs by well plate method. It counts as functional. The note with it: MTCC 3017, 72 h, read-out: DIZ.
The test system of assay [3] is Radical scavenging activity. Put plainly: Antioxidant activity assessed as DPPH radical scavenging activity after 20 mins by UV-vis spectrophotometric analysis. It counts as functional. (The DPPH test is a chemical assay of radical scavenging.)
Assay [4] concerns Aspergillus flavus. Put plainly: Antifungal activity against Aspergillus flavus MTCC 3306 at 500 ug/mL after 72 hrs by well plate method. As to conditions: MTCC 3306, 72 h, read-out: DIZ. Format: functional.
Assay [5] concerns Escherichia coli. Put plainly: Antibacterial activity against Escherichia coli ATCC 25922 at 1000 ug/mL after 24 hrs by well plate method. As to conditions: ATCC 25922, 24 h, read-out: DIZ. It counts as functional.
A short description of assay [6]: Antifungal activity against Chrysosporium keratinophilum MTCC 2827 at 500 ug/mL after 72 hrs by well plate method. It counts as functional.
For assay [7], the system named is Pseudomonas aeruginosa. Nature of the assay: Antibacterial activity against Pseudomonas aeruginosa ATCC 27853 at 1000 ug/mL after 24 hrs by well plate method. Format: functional. As to conditions: ATCC 27853, 24 h, read-out: DIZ.
Assay [8] relates to Aspergillus flavus. Put plainly: Antifungal activity against Aspergillus flavus MTCC 3306 at 1000 ug/mL after 72 hrs by well plate method. Format: functional. The note with it: MTCC 3306, 72 h, read-out: DIZ.
The subject of assay [9] is Escherichia coli. Nature of the assay: Antibacterial activity against Escherichia coli ATCC 25922 at 500 ug/mL after 24 hrs by well plate method. It counts as functional. As to conditions: ATCC 25922, 24 h, read-out: DIZ.
In assay [10] the test system is Staphylococcus aureus. Put plainly: Antibacterial activity against Staphylococcus aureus ATCC 25923 at 500 ug/mL after 24 hrs by well plate method. Format: functional. The note with it: ATCC 25923, 24 h, read-out: DIZ.
Assay [11] is described as follows: Antioxidant activity assessed as ABTS+ radical scavenging activity after 30 mins by UV-vis spectrophotometric analysis. Format: functional.
Assay [12] has as its system Liver microsomes. Nature of the assay: Antioxidant activity in Wistar rat liver microsomes assessed as inhibition of lipid peroxidation after 60 mins by UV-vis spectrophotometric analysis. It counts as functional, Microsome. For orientation: Liver microsomes are a subcellular fraction often used to study metabolism.
For assay [13], the system named is Pseudomonas aeruginosa. Nature of the assay: Antibacterial activity against Pseudomonas aeruginosa ATCC 27853 at 500 ug/mL after 24 hrs by well plate method. As to conditions: ATCC 27853, 24 h, read-out: DIZ. It counts as functional.
The test system of assay [14] is Staphylococcus aureus. Put plainly: Antibacterial activity against Staphylococcus aureus ATCC 25923 at 1000 ug/mL after 24 hrs by well plate method. It counts as functional. As to conditions: ATCC 25923, 24 h, read-out: DIZ.
The test system of assay [15] is Candida albicans. Put plainly: Antifungal activity against Candida albicans MTCC 3017 at 1000 ug/mL after 72 hrs by well plate method. It counts as functional. As to conditions: MTCC 3017, 72 h, read-out: DIZ.

As usually defined, the IC50 is the midpoint of a concentration-inhibition curve. As for `COc1cc(C2CC(=NOC(=O)c3cc(O)cc(O)c3)CC(c3ccc(O)c(OC)c3)N2C)ccc1O` (configuration not stated), the inhibition zone (IZ) in assay [1] amounted to 1 mm; in [6] it was 2 mm. Also, the zone of inhibition at 500 µg/mL worked out at 3 mm in [2]; 1 mm in assay [4]; 5 mm in assay [9]; 5 mm in assay [10]; 4 mm in [13]. In addition, the values for the IC50 in assay [3], in assay [11] and in assay [12] were 10.8 µM, 12.3 µM and 17.2 µM, respectively. Further, the zone of inhibition at 1000 µg/mL came out at 4 mm in assay [5]; 5 mm in assay [7]; 2 mm in assay [8]; 5 mm in [14]; 3 mm in assay [15].

On to `COc1cc(C2CC(=NOC(=O)c3ccc([N+](=O)[O-])cc3)CC(c3ccc(O)c(OC)c3)N2C)ccc1O` (configuration not stated), for which the inhibition zone (IZ) in assay [1] turned out to be 5 mm; in assay [6], 4 mm. For the same compound, the zone of inhibition at 500 µg/mL in [2] turned out to be 7 mm; in [4] it was 3 mm; in [9], 4 mm; in assay [10], 5 mm; in [13], 5 mm. Further, the IC50 came out at 76 µM in assay [3], 79 µM in assay [11] and 82 µM in assay [12]. Further, the zone of inhibition at 1000 µg/mL in [5] stood at 8 mm; in assay [7], 8 mm; in assay [8], 4 mm; in assay [14] it was 8 mm; in assay [15] it was 6 mm.

As for `COc1cc(C2CC(=NOC(=O)c3ccccc3)CC(c3ccc(O)c(OC)c3)N2C)ccc1O` (configuration not stated), the inhibition zone (IZ) in [1] was found to be 3 mm; in assay [6] it was 2 mm. Moreover, the zone of inhibition at 500 µg/mL came out at 2 mm in assay [2]; 1 mm in [4]; 2 mm in assay [9]; 3 mm in assay [10]; 1 mm in assay [13]. Besides, the results for the IC50 in assay [3], in assay [11] and in assay [12] were 141 µM, 156 µM and 165 µM, respectively. The zone of inhibition at 1000 µg/mL amounted to 3 mm in assay [5]; 2 mm in assay [7]; 2 mm in [8]; 4 mm in assay [14]; 3 mm in [15].

Regarding `COc1cc(C2CC(=NOC(=O)c3cc(O)c(O)c(O)c3)CC(c3ccc(O)c(OC)c3)N2C)ccc1O` (configuration not stated), the inhibition zone (IZ) in assay [1] is 4 mm; in assay [6] it was 3 mm. In addition, the zone of inhibition at 500 µg/mL in [2] is 6 mm; in [4], 2 mm; in assay [9], 5 mm; in assay [10] it was 4 mm; in assay [13], 3 mm. The IC50 in assay [3] was found to be 10 µM; in assay [11], 11.8 µM; in assay [12] it was 16.1 µM. Also, the zone of inhibition at 1000 µg/mL in [5] is 7 mm; in assay [7] it was 4 mm; in assay [8] it was 4 mm; in assay [14], 6 mm; in [15], 8 mm.

As for `COc1cc(C2CC(=NOC(=O)c3ccc(O)cc3)CC(c3ccc(O)c(OC)c3)N2C)ccc1O` (configuration not stated), the inhibition zone (IZ) in [1] came to 3 mm; in assay [6], 2 mm. Moreover, the zone of inhibition at 500 µg/mL in assay [2] came out at 2 mm; in assay [4], 12 mm; in assay [9], 4 mm; in assay [10] it was 4 mm; in [13], 2 mm. For the same compound, the IC50 came to 14.2 µM in assay [3], 15.1 µM in assay [11] and 22.5 µM in [12]. For the same compound, the zone of inhibition at 1000 µg/mL in assay [5] was determined as 5 mm; in [7], 3 mm; in [8] it was 1 mm; in assay [14], 6 mm; in [15], 2 mm.

As for `COc1cc(C2CC(=NOC(=O)c3ccccc3O)CC(c3ccc(O)c(OC)c3)N2C)ccc1O` (configuration not stated), the inhibition zone (IZ) in assay [1] came out at 6 mm; in [6] it was 4 mm. In addition, the zone of inhibition at 500 µg/mL turned out to be 2 mm in [2]; 3 mm in assay [4]; 4 mm in assay [9]; 5 mm in assay [10]; 3 mm in assay [13]. For the same compound, the IC50 in [3] is 14.8 µM; in assay [11], 15.9 µM; in [12], 24.1 µM. The zone of inhibition at 1000 µg/mL in [5] turned out to be 6 mm; in [7], 4 mm; in assay [8], 4 mm; in assay [14], 5 mm; in assay [15] it was 6 mm.

With `CN[C@@H]1[C@H](O[C@H]2[C@H](O[C@H]3[C@H](O)[C@@H](O)[C@H](N=C(N)N)[C@@H](O)[C@@H]3N=C(N)N)O[C@@H](C)[C@]2(O)C=O)O[C@@H](CO)[C@H](O)[C@H]1O` [STREPTOMYCIN], the zone of inhibition at 1000 µg/mL in assay [5] was 18 mm; in [7] it was 16 mm; in assay [14], 15 mm. In addition, the zone of inhibition at 500 µg/mL in assay [9] is 12 mm; in assay [10], 12 mm; in [13], 13 mm.

On to `COc1cc(C2CC(=NO)CC(c3ccc(O)c(OC)c3)N2C)ccc1O` (configuration not stated), for which the inhibition zone (IZ) in assay [1] and in assay [6] was 1 mm in each case. Besides, the zone of inhibition at 500 µg/mL in assay [2], in assay [4], in assay [9], in assay [10] and in [13] was 0 mm each time. For the same compound, the IC50 in assay [3] was found to be 144 µM; in [11] it was 158 µM; in [12], 167 µM. For the same compound, the zone of inhibition at 1000 µg/mL in assay [5], in [7], in [8], in assay [14] and in [15] was 1 mm throughout.

As for `COc1cc(C2CC(=NOC(=O)c3cccc(O)c3)CC(c3ccc(O)c(OC)c3)N2C)ccc1O` (configuration not stated), the inhibition zone (IZ) in assay [1] is 2 mm; in assay [6], 1 mm. For the same compound, the zone of inhibition at 500 µg/mL in assay [2] was 1 mm; in assay [4], 1 mm; in assay [9] it was 6 mm; in assay [10], 5 mm; in [13] it was 3 mm. For the same compound, the IC50 was determined as 15.6 µM in assay [3], 16.5 µM in assay [11] and 25.3 µM in [12]. The zone of inhibition at 1000 µg/mL was 7 mm in assay [5]; 5 mm in [7]; 2 mm in assay [8]; 7 mm in assay [14]; 3 mm in assay [15].

Turning to `OC(Cn1cncn1)(Cn1cncn1)c1ccc(F)cc1F` [FLUCONAZOLE], the inhibition zone (IZ) in assay [1] was 17 mm; in assay [6], 16 mm. Besides, the results for the zone of inhibition at 500 µg/mL in assay [2] and in assay [4] were 20 mm and 12 mm, respectively. Also, the results for the zone of inhibition at 1000 µg/mL in assay [8] and in assay [15] were 14 mm and 22 mm, respectively.
